In patent US20250268903A1, “RXFP1 AGONISTS” (BRISTOL-MYERS SQUIBB COMPANY, priority 2021, published 2025):

Each molecule was assayed against T1, human RXFP1 (Homo sapiens, UniProt Q9HBX9) (assay: hRXFP1 HEK293 cAMP assay (HTRF)). Conditions: HEK293 cells stably expressing human RXFP1, 30 min at room temperature.
T1 construct: expressed in transfected cells
T1 sequence (Q9HBX9 1-757): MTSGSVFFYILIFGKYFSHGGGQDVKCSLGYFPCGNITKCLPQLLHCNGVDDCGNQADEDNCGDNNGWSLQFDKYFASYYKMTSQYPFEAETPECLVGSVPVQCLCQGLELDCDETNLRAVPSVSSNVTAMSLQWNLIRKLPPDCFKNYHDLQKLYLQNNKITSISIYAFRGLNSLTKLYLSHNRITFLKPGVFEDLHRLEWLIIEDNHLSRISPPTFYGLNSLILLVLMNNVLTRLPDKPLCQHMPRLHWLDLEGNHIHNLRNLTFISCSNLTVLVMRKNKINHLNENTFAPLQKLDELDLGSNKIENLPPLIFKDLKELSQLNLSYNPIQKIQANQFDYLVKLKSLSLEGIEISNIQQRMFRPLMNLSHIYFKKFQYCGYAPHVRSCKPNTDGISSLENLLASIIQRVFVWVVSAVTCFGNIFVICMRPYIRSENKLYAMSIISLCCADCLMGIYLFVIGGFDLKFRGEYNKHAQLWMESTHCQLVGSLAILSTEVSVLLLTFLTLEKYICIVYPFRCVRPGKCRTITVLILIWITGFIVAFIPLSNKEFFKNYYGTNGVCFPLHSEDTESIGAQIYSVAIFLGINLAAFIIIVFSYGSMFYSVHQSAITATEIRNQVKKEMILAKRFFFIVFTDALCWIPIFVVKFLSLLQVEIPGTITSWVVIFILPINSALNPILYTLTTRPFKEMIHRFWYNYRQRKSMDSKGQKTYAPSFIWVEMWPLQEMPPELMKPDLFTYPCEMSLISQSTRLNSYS
Format: cell-based
Procedure, shortened: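 HEK293 cells stably expressing human RXFP1 (1500 cells/well) in HBSS/20 mM HEPES/0.05% BSA/0.5 mM IBMX. Compounds were tested at 0.010 nM–50 μM final (2% DMSO) for 30 min at room temperature. cAMP was measured by HTRF and values derived by 4-parameter logistic fit.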
An EC50 of 129 nM was found for `COc1ccc(CCC(C)(C)O)cc1C(=O)NC1C2CCC(/C2=C/C2CCOCC2)[C@@H]1C(=O)Nc1ccc(F)c(C(F)(F)F)c1` (stereo partly drawn) [Example 166, (7Z)-N-[4-fluoro-3-(trifluoromethyl)phe-nyl]-3-[5-(3-hydroxy-3-methylbutyl)-2-methoxybenzamido]-7-[(oxan-4-yl)methylidene]bicy-clo[2.2.1]heptane-2-carboxamide] in this work. An EC50 of 11 nM was found for `COc1ccc(CCCO)cc1C(=O)NC1C2CCC(/C2=C/C2CCCC2)[C@@H]1C(=O)Nc1ccc(F)c(C(F)(F)F)c1` (stereo partly drawn) [Example 167, (7Z)-7-(cyclopentylmethyli-dene)-N-[4-fluoro-3-(trifluoromethyl)phe-nyl]-3-[5-(3-hydroxypropyl)-2-methoxybenzamido] bicyclo[2.2.1]heptane-2-carboxamide] in this work. An EC50 of 8 nM was found for `COc1ccc(CCC(C)(C)O)cc1C(=O)NC1C2CCC(/C2=C/C2CCCC2)[C@@H]1C(=O)Nc1ccc(F)c(C(F)(F)F)c1` (stereo partly drawn) [Example 168, (7Z)-7-(cyclopentylmethyli-dene)-N-[4-fluoro-3-(trifluoromethyl)phe-nyl]-3-[5-(3-hydroxy-3-methylbutyl)-2-methoxybenzamido] bicyclo[2.2.1]heptane-2-carboxamide] in this work. An EC50 of 102 nM was found for `COc1ccc(CCC(C)(C)O)cc1C(=O)NC1C2CCC(/C2=C/C2CCOC2)[C@@H]1C(=O)Nc1ccc(F)c(C(F)(F)F)c1` (stereo partly drawn) [Example 169, (7Z)-N-[4-fluoro-3-(trifluoromethyl)phe-nyl]-3-[5-(3-hydroxy-3-methylbutyl)-2-methoxybenzamido]-7-[(oxolan-3-yl)methylidene]bicy-clo[2.2.1]heptane-2-carboxamide] in this work. An EC50 of 66 nM was found for `COc1ccc(CCC(C)(C)O)cc1C(=O)NC1C2CCC(/C2=C/CC2CCC2)[C@@H]1C(=O)Nc1ccc(F)c(C(F)(F)F)c1` (stereo partly drawn) [Example 174, (7Z)-7-(2-cyclobutylethylidene)-N-[4-fluoro-3-(trifluoromethyl)phe-nyl]-3-[5-(3-hydroxy-3-methylbutyl)-2-methoxybenzamido] bicyclo[2.2.1]heptane-2-carboxamide] in this work. An EC50 of 311 nM was found for `COc1ccc(CCC(C)(C)O)cc1C(=O)NC1C2CCC(/C2=C/CC(F)F)[C@@H]1C(=O)Nc1ccc(F)c(C(F)(F)F)c1` (stereo partly drawn) [Example 175, (7Z)-7-(3,3-difluoropropylidene)-N-[4-fluoro-3-(trifluoromethyl)phe-nyl]-3-[5-(3-hydroxy-3-methylbutyl)-2-methoxybenzamido] bicyclo[2.2.1]heptane-2-carboxamide] in this work. An EC50 of 738 nM was found for `COc1ccc(C2CCC2)cc1C(=O)N[C@H]1[C@@H](C(=O)Nc2ccc(F)c(C(F)(F)F)c2)[C@H]2CC[C@@H]1/C2=C\C(F)(F)F` [Example 176, (1R,2S,3R,4R,Z)-3-(5-cyclobutyl-2-methoxybenzamido)-N-(4-fluoro-3-(trifluoromethyl)phenyl)-7-(2,2,2-trifluoroethylidene) bicyclo[2.2.1]heptane-2-carboxamide] in this work. An EC50 of 298 nM was found for `COc1ccc(C2CCC(C(F)(F)F)CC2)cc1C(=O)NC1C2CCC(/C2=C/C(F)(F)F)[C@@H]1C(=O)Nc1ccc(F)c(C(F)(F)F)c1` (stereo partly drawn) [Example 177, (7Z)-N-[4-fluoro-3-(trifluoromethyl)phe-nyl]-3-{2-methoxy-5-[4-(trifluoromethyl)cyclo-hexyl]benzamido}-7-(2,2,2-trifluoroethylidene)bi-cyclo[2.2.1]heptane-2-carboxamide] in this work. An EC50 of 355 nM was found for `COc1ccc(CC2CCOCC2)cc1C(=O)NC1C2CCC(/C2=C/C(F)(F)F)[C@@H]1C(=O)Nc1ccc(F)c(C(F)(F)F)c1` (stereo partly drawn) [Example 178, (7Z)-N-[4-fluoro-3-(trifluoromethyl)phe-nyl]-3-{2-methoxy-5-[(oxan-4-yl)methyl]benzamido}-7-(2,2,2-trifluoroethylidene)bi-cyclo[2.2.1]heptane-2-carboxamide] in this work. An EC50 of 267 nM was found for `COc1ccc(CCc2ccc(F)cc2)cc1C(=O)NC1C2CCC(/C2=C/C(F)(F)F)[C@@H]1C(=O)Nc1ccc(F)c(C(F)(F)F)c1` (stereo partly drawn) [Example 179, (7Z)-N-[4-fluoro-3-(trifluoromethyl)phe-nyl]-3-{5-[2-(4-fluorophenyl)ethyl]-2-methoxybenzamido}-7-(2,2,2-trifluoroethylidene)bi-cyclo[2.2.1]heptane-2-carboxamide] in this work. An EC50 of 168 nM was found for `COc1ccc(CCC2CCOCC2)cc1C(=O)NC1C2CCC(/C2=C/C(F)(F)F)[C@@H]1C(=O)Nc1ccc(F)c(C(F)(F)F)c1` (stereo partly drawn) [Example 180, (7Z)-N-[4-fluoro-3-(trifluoromethyl)phe-nyl]-3-{2-methoxy-5-[2-(oxan-4-yl)ethyl]benzamido}-7-(2,2,2-trifluoroethylidene)bi-cyclo[2.2.1]heptane-2-carboxamide] in this work. An EC50 of 103 nM was found for `COc1ccc(CCCCCC#N)cc1C(=O)NC1C2CCC(/C2=C/C(F)(F)F)[C@@H]1C(=O)Nc1ccc(F)c(C(F)(F)F)c1` (stereo partly drawn) [Example 181, (7Z)-3-[5-(5-cyanopentyl)-2-methoxybenzamido]-N-[4-fluoro-3-(trifluoromethyl)phe-nyl]-7-(2,2,2-trifluoroethylidene)bi-cyclo[2.2.1]heptane-2-carboxamide] in this work. An EC50 of 139 nM was found for `COc1ccc(CCN2CCOC2=O)cc1C(=O)NC1C2CCC(/C2=C/C(F)(F)F)[C@@H]1C(=O)Nc1ccc(F)c(C(F)(F)F)c1` (stereo partly drawn) [Example 182, (7Z)-N-[4-fluoro-3-(trifluoromethyl)phe-nyl]-3-{2-methoxy-5-[2-(2-oxo-1,3-oxazolidin-3-yl)ethyl]benzamido}-7-(2,2,2-trifluoroethylidene)bi-cyclo[2.2.1]heptane-2-carboxamide] in this work. An EC50 of 850 nM was found for `COc1ccc(C[C@@H]2CCC(=O)N2)cc1C(=O)NC1C2CCC(/C2=C/C(F)(F)F)[C@@H]1C(=O)Nc1ccc(F)c(C(F)(F)F)c1` (stereo partly drawn) [Example 183, (7Z)-N-[4-fluoro-3-(trifluoromethyl)phe-nyl]-3-(2-methoxy-5-{[(2S)-5-oxopyrrolidin-2-yl]methyl}benzamido)-7-(2,2,2-trifluoroethylidene)bi-cyclo[2.2.1]heptane-2-carboxamide] in this work. An EC50 of 252 nM was found for `COc1ccc(CCCCCCC#N)cc1C(=O)NC1C2CCC(/C2=C/C(F)(F)F)[C@@H]1C(=O)Nc1ccc(F)c(C(F)(F)F)c1` (stereo partly drawn) [Example 184, (7Z)-3-[5-(6-cyanohexyl)-2-methoxybenzamido]-N-[4-fluoro-3-(trifluoromethyl)phe-nyl]-7-(2,2,2-trifluoroethylidene)bi-cyclo[2.2.1]heptane-2-carboxamide] in this work. An EC50 of 603 nM was found for `COc1ccc(CCCC(F)(F)F)cc1C(=O)NC1C2CCC(/C2=C/C(F)(F)F)[C@@H]1C(=O)Nc1ccc(F)c(C(F)(F)F)c1` (stereo partly drawn) [Example 185, (7Z)-N-[4-fluoro-3-(trifluoromethyl)phe-nyl]-3-[2-methoxy-5-(4,4,4-trifluorobutyl)benza-mido]-7-(2,2,2-trifluoroethylidene)bi-cyclo[2.2.1]heptane-2-carboxamide] in this work. An EC50 of 280 nM was found for `COc1ccc(CCCCC(F)(F)F)cc1C(=O)NC1C2CCC(/C2=C/C(F)(F)F)[C@@H]1C(=O)Nc1ccc(F)c(C(F)(F)F)c1` (stereo partly drawn) [Example 186, (7Z)-N-[4-fluoro-3-(trifluoromethyl)phe-nyl]-3-[2-methoxy-5-(5,5,5-trifluoropentyl)benza-mido]-7-(2,2,2-trifluoroethylidene)bi-cyclo[2.2.1]heptane-2-carboxamide] in this work. An EC50 of 385 nM was found for `COc1ccc(CCC(F)(F)F)cc1C(=O)NC1C2CCC(/C2=C/C(F)(F)F)[C@@H]1C(=O)Nc1ccc(F)c(C(F)(F)F)c1` (stereo partly drawn) [Example 187, (7Z)-N-[4-fluoro-3-(trifluoromethyl)phe-nyl]-3-[2-methoxy-5-(3,3,3-trifluoropropyl)benz-amido]-7-(2,2,2-trifluoroethylidene)bi-cyclo[2.2.1]heptane-2-carboxamide] in this work. An EC50 of 56 nM was found for `COc1ccc(CCc2ccc(OC)c(C(=O)NC3C4CCC(/C4=C/C(F)(F)F)[C@@H]3C(=O)Nc3ccc(F)c(C(F)(F)F)c3)c2)cc1` (stereo partly drawn) [Example 188, (7Z)-N-[4-fluoro-3-(trifluoromethyl)phe-nyl]-3-{2-methoxy-5-[2-(4-methoxyphenyl)ethyl]benzamido}-7-(2,2,2-trifluoroethylidene)bi-cyclo[2.2.1]heptane-2-carboxamide] in this work. An EC50 of 494 nM was found for `COCCCc1ccc(OC)c(C(=O)NC2C3CCC(/C3=C/C(F)(F)F)[C@@H]2C(=O)Nc2ccc(F)c(C(F)(F)F)c2)c1` (stereo partly drawn) [Example 189, (2S,3R,7Z)-N-[4-fluoro-3-(trifluoromethyl)phe-nyl]-3-[2-methoxy-5-(3-methoxypropyl)benz-amido]-7-(2,2,2-trifluoroethylidene)bi-cyclo[2.2.1]heptane-2-carboxamide] in this work. An EC50 of 23 nM was found for `COc1ccc(CCCCCC#N)cc1C(=O)NC1C2CCC(/C2=C/C2CCC2)[C@@H]1C(=O)Nc1ccc(F)c(C(F)(F)F)c1` (stereo partly drawn) [Example 190, (7Z)-3-[5-(5-cyanopentyl)-2-methoxybenzamido]-7-(cyclobutylmethyli-dene)-N-[4-fluoro-3-(trifluoromethyl)phe-nyl]bicyclo[2.2.1]hept-ane-2-carboxamide] in this work.
